The text below walks through data of publication PMC8591201, “Anti-Tumor Activity of AZD4547 Against NTRK1 Fusion Positive Cancer Cells Through Inhibition of NTRKs” (Frontiers in Oncology, 2021).

One may read the GI50 as the concentration that inhibits growth by half.

Each structure is given as a SMILES string. Bounds are passed on as bounds.

Test in all cases: cells
Parameters in all cases: species or system Ba/F3; CellTiter-Glo anti-proliferation of Ba/F3 cells transformed with ETV6-NTRK fusions
What all share (conditions): Mus musculus, BaF3, 72 h; read-out: AZD4547 GI50
(Cellular ATP, detected with luciferase, serves as a proxy for viable cell number.)

The subject of assay [1] is T1, TRKA.
T1 construct: ETV6 (1-336)-NTRK1 kinase domain (434-790) fusion expressed in Ba/F3
On the procedure: (§1) To obtain the GI50 value of a substance, cell viability was measured using MTT (G4000, Promega, USA) for KM12(Luc) cell and Cell titer glo (G7572, Promega, USA) for other cell lines. For adherent cells, cells were seeded at 5,000 cells/well in a 96-well plate and treated with a substance one day after cell seeding. For suspension cells, 10,000 cells/well were seeded and the substance was treated after 4 h stabilization of cells. The substance was treated at 10 points of 1:3 serial dilution (0–100 µmol/L) for 72 h. For MTT assay, 15 µL dye solution was added to each well and incubated 4 h at 37°C. 100 µL of solubilization solution was added and followed 1 hr incubation. Absorbance at 570 nm of each well was recorded using EnVision microplate reader (Perkin Elmer). For Cell titer glo assay, Cell titer glo reagent was treated in each well and measured the luminescence by EnVision microplate reader (Perkin Elmer). Viable cells in each well were normalized by using 0.5% DMSO-treated wells (100%). The inhibitor dose−response curve was fitted and GI50 values were calculated using Prism 7.0 software (GraphPad). All assays were performed in duplicate and the standard deviation (SD) was determined from two independent experiments. To investigate the inhibitory activity of AZD4547 against clinically relevant TRK mutants which have resistance to the known TRK inhibitors ([8], [44]), we established Ba/F3 cell lines harboring the ETV6-NTRKs fusion genes (NTRK1, NTRK1G595R, NTRK1G667A, NTRK1G667C, NTRK1G667S and NTRK2) ( Supplementary Figure 2 ). The mutation status of each established cell line was confirmed by sequencing of its cDNA ( Supplementary Figure 2 ). The anti-proliferation activity of AZD4547 was then measured in each cell line ( Figure 2A and Table S2 ). […] However, AZD4547 has no inhibitory activity against Ba/F3 harboring clinically relevant TRKs mutants including TRKA G595R, TRKA G667S, TRKA G667C and TRKA G667A. We next evaluated if AZD4547 is capable of suppressing the phosphorylation of TRKA/B in Ba/F3 cell lines ( Figure 2B ). […] Also, phosphorylation of TRKA/B is almost completely abolished using 1 µM of AZD4547. […] (A) Summary of GI50s of AZD4547 against Ba/F3: TRKA mutants or TRKB. Cell viability after 72 h exposure to the indicated inhibitors, determined by using a cell titer glo assay in duplicate mode. Data was plotted as mean GI50 ± SD of two independent experiments. (B) AZD4547 inhibits phosphorylation of TRKA/B and PLC-gamma in Ba/F3 harboring TRKA and TRKB, respectively. […] Data are representative of three independent experiments.

The test system of assay [2] is T2, TRKA G667S.
T2 construct: ETV6 (1-336)-NTRK1 kinase domain (434-790) fusion expressed in Ba/F3
On the procedure:
as §1

Assay [3] has as its system T3, TRKA G595R.
T3 construct: ETV6 (1-336)-NTRK1 kinase domain (434-790) fusion expressed in Ba/F3
Here is the method: as §1

Assay [4] has as its system T4, TRKA G667C.
T4 construct: ETV6 (1-336)-NTRK1 kinase domain (434-790) fusion expressed in Ba/F3
Here is the method: as §1

In assay [5] the test system is T5, TRKB.
T5 construct: ETV6 (1-336)-NTRK2 kinase domain (455-822) fusion expressed in Ba/F3
Here is the method: as §1

Take `COc1cc(CCc2cc(NC(=O)c3ccc(N4C[C@@H](C)N[C@@H](C)C4)cc3)n[nH]2)cc(OC)c1` [AZD4547]: the GI50 in assay [1] is 66 ± 11.5 nM; in assay [2] it was more than 2000 nM; in assay [3], more than 2000 nM; in assay [4], more than 2000 nM; in assay [5], 104 ± 6.1 nM.
